From patent publication US10774049B2, “PU.1 inhibitors” (Albert Einstein College of Medicine, priority 2016, dated 2020)

Experiments:
[1] = system: PU.1 URE−/− AML cell line; experiment: Cell viability/growth of PU.1 URE−/− AML cells; format: cell-based, murine; conditions: Mus musculus; read-out: IC50 URE−/−
Method: (§1) FIG. 2A-2F. PU.1 inhibition decreases cell growth and increases apoptosis of PU.1^1″ leukemic cells. (A) Chemical structures of heterocyclic diamidines DB1976, DB2115 and DB2313 used in this study. (B) Relative cell viability of URE−/− cells and BAF3 cells after treatment with increasing concentrations of vehicle or small molecules. Cell viability was assessed after 48 h. Data represent means of technical triplicate from one representative experiment; fold change compared to Vehicle is shown. (C) Cell proliferation assay of URE−/− after treatment with DB1976 (n=5), DB2115 (n=3), DB2313 (n=3), of MOLM13 cells (n=3), and THP1 cells (n=3). Cell counting was performed every 24 h during 4 days. Data represent means±SD of technical triplicate from one representative experiment. Forward strand: SEQ ID NO:3, and Reverse strand: SEQ ID NO:4; derived from the λB motif from the murine Ig lambda 2-4 enhancer, a known native PU.1-dependent gene and specific binding site for PU.1. (D) Clonogenic capacities of URE−/− cells after treatment with DB1976 (n=5), DB2115 (n=3) and DB2313 (n=4) in the first plating, and after serial replatings (n=3). Data represent means±SD of technical triplicate from one representative experiment. (E) Apoptotic cells (Annexin-V+Dapi−) fraction in URE−/− cells after 48 h of treatment with DB1976 (n=6), DB2115 (n=6) and DB2313 (n=3). Data represent the means±SD of independent experiments; fold change compared to Vehicle is shown. *P<0.05, **P<0.01, ***P<0.001, ****P<0.0001 (F) Dose dependent inhibitor of PU.1-dependent transactivation.
(§2) To determine if our PU.1 inhibitors have an effect on PU.1^low-induced AML cells, we treated the PU.1 URE^−/− AML cell line with compounds at different concentrations. Treatment with the drugs led to a profound decrease in growth of PU.1 URE^−/− AML cells after 48 h whereas it had only minimal or no effects on control cells with normal PU.1 levels (BaF3), even at very high doses (FIG. 3A). […] Similar to our observations with PU.1-directed shRNAs, treatment with pharmacological PU.1 inhibitors led to a significant 1.6-, 2- and 3.5-fold increase of apoptotic cells with DB1976, DB2115 and DB2313, respectively, in murine PU.1 URE^−/− AML cells (FIG. 3C), and similar effects in human MOLM13 cells.

BaF3 cells = experiment: Cell viability of BaF3 control cells; format: cell-based, murine; conditions: Mus musculus, NR = Not Reached
Method: as §1, §2

SMILES	IC50 [1] [µM]	IC50 (BaF3 cells) [µM]
CC(C)NC(=N)c1ccc2nc(-c3ccc(OCc4cccc(COc5ccc(-c6nc7ccc(C(=N)NC(C)C)cc7[nH]6)cc5)n4)cc3)[nH]c2c1 [DB2302]	7.8	–
N=C(N)c1ccc2nc(-c3ccc(Oc4ccc(Oc5ccc(-c6nc7ccc(C(=N)N)cc7[nH]6)cc5)cc4)cc3)[nH]c2c1 [DB2483]	5.3	–
Cn1c(-c2ccc(OCc3cccc(COc4ccc(-c5nc6cc(C(=N)N)ccc6n5C)cc4)n3)cc2)nc2cc(C(=N)N)ccc21 [DB2326]	1.9	48
N=C(N)c1ccc2nc(-c3ccc(OCC(F)(F)C(F)(F)C(F)(F)COc4ccc(-c5nc6ccc(C(=N)N)cc6[nH]5)cc4)cc3)[nH]c2c1 [DB2355]	1.7	49
N=C(N)c1ccc2nc(-c3ccc(OCCOCCOc4ccc(-c5nc6ccc(C(=N)N)cc6[nH]5)cc4)cc3)[nH]c2c1 [DB2146]	5	68
N=C(N)c1ccc2nc(-c3ccc(OCC(F)(F)C(F)(F)Oc4ccc(-c5nc6ccc(C(=N)N)cc6[nH]5)cc4)cc3)[nH]c2c1 [DB2514]	5.6	44.5
Cn1c(-c2ccc(-c3ccc(C(=N)N)cc3)s2)nc2cc(-c3ccc(C(=N)N)cc3)ccc21 [DB2457]	16.5	–
CC(C)NC(=N)c1ccc2nc(-c3ccc(OCCOCCOc4ccc(-c5nc6ccc(C(=N)NC(C)C)cc6[nH]5)cc4)cc3)[nH]c2c1 [DB2295]	10.5	–
CN(CCOc1ccc(-c2nc3ccc(C(=N)N)cc3[nH]2)cc1)CCOc1ccc(-c2nc3ccc(C(=N)N)cc3[nH]2)cc1 [DB2150]	20	416
Cn1c(-c2ccc(OCCCOc3ccc(-c4nc5cc(C(=N)N)ccc5n4C)cc3)cc2)nc2cc(C(=N)N)ccc21 [DB2237]	4.4	–
